{"source": "paper PMC7497403", "about": "“Development of Potent PfCLK3 Inhibitors Based on TCMDC-135051 as a New Class of Antimalarials” (Journal of Medicinal Chemistry, 2020)", "experiment_in_all_cases": "Kinase screen", "type_in_all_cases": "biochemical", "key": {"CK1δ": {"biological_target": "CK1δ (Homo sapiens, UniProt P48730)", "sequence (P48730 whole entry)": "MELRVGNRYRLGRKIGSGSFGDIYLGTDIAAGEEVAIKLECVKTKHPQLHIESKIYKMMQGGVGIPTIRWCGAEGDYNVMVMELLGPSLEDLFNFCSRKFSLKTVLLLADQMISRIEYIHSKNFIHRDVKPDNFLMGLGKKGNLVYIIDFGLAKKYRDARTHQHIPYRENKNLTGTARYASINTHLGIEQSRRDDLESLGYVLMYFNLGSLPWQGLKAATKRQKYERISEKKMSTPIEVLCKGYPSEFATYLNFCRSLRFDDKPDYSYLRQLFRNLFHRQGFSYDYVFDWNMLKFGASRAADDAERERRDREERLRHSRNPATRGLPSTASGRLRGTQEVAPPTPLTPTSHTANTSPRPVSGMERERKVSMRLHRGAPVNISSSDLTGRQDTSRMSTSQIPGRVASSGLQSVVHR"}, "MSK1": {"biological_target": "MSK1 (Homo sapiens, UniProt O75582)", "excerpt": "(§1) With verapamil used as a positive control.\n(§2) V. Distribution coefficient (LogD7.4)"}, "CK2": {"biological_target": "CK2 (Homo sapiens, UniProt P68400)", "excerpt": "as §1, §2"}, "CDK2-Cyclin A": {"biological_target": "CDK2-Cyclin A (Homo sapiens, UniProt P24941)", "excerpt": "as §1, §2"}, "MAP4K5": {"biological_target": "MAP4K5 (Homo sapiens, UniProt Q9Y4K4)", "excerpt": "as §1, §2"}, "HIPK1": {"biological_target": "HIPK1 (Homo sapiens, UniProt Q86Z02)", "sequence (Q86Z02 whole entry)": "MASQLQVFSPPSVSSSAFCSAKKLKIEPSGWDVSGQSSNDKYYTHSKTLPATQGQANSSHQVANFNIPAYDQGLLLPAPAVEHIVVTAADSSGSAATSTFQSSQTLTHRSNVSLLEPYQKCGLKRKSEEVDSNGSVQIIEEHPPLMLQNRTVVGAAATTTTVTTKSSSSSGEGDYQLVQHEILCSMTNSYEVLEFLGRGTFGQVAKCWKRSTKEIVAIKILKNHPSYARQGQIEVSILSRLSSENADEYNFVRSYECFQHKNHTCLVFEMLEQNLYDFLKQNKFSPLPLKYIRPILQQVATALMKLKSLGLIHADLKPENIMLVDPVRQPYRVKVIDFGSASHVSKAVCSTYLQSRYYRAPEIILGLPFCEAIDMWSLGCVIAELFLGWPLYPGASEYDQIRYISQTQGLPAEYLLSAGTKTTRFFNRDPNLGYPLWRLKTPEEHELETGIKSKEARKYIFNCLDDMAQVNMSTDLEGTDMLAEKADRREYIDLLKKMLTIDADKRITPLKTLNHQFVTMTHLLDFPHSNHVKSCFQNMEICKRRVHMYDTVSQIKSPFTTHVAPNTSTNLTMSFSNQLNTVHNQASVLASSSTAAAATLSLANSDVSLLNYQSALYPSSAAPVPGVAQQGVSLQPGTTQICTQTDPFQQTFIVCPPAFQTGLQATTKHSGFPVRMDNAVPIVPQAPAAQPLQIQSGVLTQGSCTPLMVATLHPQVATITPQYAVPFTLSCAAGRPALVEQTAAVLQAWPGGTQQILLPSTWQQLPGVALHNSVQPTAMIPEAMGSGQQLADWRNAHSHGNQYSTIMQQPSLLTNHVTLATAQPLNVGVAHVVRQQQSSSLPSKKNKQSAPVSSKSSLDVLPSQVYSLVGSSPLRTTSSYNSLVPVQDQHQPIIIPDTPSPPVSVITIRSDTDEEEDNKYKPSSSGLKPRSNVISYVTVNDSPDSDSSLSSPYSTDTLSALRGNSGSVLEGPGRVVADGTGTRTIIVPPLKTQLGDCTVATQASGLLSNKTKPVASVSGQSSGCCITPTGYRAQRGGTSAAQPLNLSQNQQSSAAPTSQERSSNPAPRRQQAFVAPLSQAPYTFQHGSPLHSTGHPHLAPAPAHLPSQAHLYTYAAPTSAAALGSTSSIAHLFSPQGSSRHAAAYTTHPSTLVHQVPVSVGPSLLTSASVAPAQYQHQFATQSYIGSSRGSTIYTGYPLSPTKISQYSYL", "excerpt": "as §1, §2"}, "EPH-A4": {"biological_target": "EPH-A4 (Homo sapiens, UniProt P54764)", "excerpt": "as §1, §2"}, "MAP4K3": {"biological_target": "MAP4K3 (Homo sapiens, UniProt Q8IVH8)", "excerpt": "as §1, §2"}, "TLK1": {"biological_target": "TLK1 (Homo sapiens, UniProt Q9UKI8)", "excerpt": "as §1, §2"}, "ERK2": {"biological_target": "ERK2 (Homo sapiens, UniProt P28482)", "excerpt": "as §1, §2"}, "Aurora B": {"biological_target": "Aurora B (Homo sapiens, UniProt Q96GD4)", "sequence (Q96GD4 whole entry)": "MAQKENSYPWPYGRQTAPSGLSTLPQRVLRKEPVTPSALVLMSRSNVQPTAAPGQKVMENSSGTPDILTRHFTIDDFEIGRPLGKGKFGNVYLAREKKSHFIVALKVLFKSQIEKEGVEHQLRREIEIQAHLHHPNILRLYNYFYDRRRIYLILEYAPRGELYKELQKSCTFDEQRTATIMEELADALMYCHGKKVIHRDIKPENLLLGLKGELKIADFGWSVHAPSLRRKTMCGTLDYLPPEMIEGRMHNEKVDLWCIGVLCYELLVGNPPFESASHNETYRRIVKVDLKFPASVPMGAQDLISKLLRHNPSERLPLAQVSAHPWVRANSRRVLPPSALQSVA", "excerpt": "as §1, §2"}, "TGFBR1": {"biological_target": "TGFBR1 (Homo sapiens, UniProt P36897)", "excerpt": "as §1, §2"}, "MELK": {"biological_target": "MELK (Homo sapiens, UniProt Q14680)", "excerpt": "as §1, §2"}, "JAK3": {"biological_target": "JAK3 (Homo sapiens, UniProt P52333)", "excerpt": "as §1, §2"}, "PIM1": {"biological_target": "PIM1 (Homo sapiens, UniProt P11309)", "excerpt": "as §1, §2"}, "EF2K": {"biological_target": "EF2K (Homo sapiens, UniProt O00418)", "excerpt": "as §1, §2"}, "SYK": {"biological_target": "SYK (Homo sapiens, UniProt P43405)", "excerpt": "as §1, §2"}, "MARK3": {"biological_target": "MARK3 (Homo sapiens, UniProt P27448)", "excerpt": "as §1, §2"}, "MKK1": {"biological_target": "MKK1 (Homo sapiens, UniProt Q02750)", "excerpt": "as §1, §2"}, "PKA": {"biological_target": "PKA (Homo sapiens, UniProt P17612)", "excerpt": "as §1, §2"}, "IKKb": {"biological_target": "IKKb (Homo sapiens, UniProt O14920)", "excerpt": "as §1, §2"}, "EPH-A2": {"biological_target": "EPH-A2 (Homo sapiens, UniProt P29317)", "excerpt": "as §1, §2"}, "PIM2": {"biological_target": "PIM2 (Homo sapiens, UniProt Q9P1W9)", "sequence (Q9P1W9 whole entry)": "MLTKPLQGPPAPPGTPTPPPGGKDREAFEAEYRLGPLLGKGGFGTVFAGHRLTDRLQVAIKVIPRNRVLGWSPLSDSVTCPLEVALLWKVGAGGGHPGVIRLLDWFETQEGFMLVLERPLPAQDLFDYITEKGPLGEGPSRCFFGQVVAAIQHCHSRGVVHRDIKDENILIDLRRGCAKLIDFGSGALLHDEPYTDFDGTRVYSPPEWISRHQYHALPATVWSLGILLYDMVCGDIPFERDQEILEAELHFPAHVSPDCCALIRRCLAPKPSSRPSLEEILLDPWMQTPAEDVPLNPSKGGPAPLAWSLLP", "excerpt": "as §1, §2"}, "SIK3": {"biological_target": "SIK3 (Homo sapiens, UniProt Q9Y2K2)", "excerpt": "as §1, §2"}, "ASK1": {"biological_target": "ASK1 (Homo sapiens, UniProt Q99683)", "sequence (Q99683 whole entry)": "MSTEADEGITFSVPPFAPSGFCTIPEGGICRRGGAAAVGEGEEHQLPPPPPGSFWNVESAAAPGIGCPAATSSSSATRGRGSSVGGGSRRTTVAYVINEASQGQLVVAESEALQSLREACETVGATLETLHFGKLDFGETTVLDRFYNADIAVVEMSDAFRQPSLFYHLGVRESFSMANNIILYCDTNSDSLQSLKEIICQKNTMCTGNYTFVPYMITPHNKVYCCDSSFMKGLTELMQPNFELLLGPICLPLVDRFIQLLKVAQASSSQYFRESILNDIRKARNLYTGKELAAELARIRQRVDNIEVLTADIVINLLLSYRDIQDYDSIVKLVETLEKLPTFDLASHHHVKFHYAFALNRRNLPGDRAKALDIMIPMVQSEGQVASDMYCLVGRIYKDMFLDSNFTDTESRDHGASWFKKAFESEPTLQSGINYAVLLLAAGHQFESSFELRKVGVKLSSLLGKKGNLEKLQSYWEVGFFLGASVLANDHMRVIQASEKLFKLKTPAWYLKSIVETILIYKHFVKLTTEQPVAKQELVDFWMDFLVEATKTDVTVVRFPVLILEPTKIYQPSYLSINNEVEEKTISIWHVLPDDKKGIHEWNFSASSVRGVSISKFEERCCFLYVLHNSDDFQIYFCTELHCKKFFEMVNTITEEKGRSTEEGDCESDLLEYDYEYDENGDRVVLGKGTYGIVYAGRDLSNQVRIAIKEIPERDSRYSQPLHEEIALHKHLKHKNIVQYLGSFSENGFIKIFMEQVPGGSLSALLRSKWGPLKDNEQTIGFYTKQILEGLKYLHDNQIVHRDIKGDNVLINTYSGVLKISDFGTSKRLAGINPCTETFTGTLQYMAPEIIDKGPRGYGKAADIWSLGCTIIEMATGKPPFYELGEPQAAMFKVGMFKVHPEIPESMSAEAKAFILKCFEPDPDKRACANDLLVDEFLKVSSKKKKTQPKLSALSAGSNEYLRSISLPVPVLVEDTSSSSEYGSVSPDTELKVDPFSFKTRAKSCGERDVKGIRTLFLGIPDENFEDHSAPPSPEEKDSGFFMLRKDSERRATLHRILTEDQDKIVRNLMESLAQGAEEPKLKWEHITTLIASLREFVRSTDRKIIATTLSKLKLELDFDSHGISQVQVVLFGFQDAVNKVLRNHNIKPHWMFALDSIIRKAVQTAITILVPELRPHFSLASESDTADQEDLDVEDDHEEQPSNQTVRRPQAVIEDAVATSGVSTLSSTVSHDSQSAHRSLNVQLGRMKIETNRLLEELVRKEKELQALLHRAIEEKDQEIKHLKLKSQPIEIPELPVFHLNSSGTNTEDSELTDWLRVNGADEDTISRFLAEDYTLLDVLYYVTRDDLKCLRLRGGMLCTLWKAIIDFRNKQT", "excerpt": "as §1, §2"}, "PAK2": {"biological_target": "PAK2 (Homo sapiens, UniProt Q13177)", "excerpt": "as §1, §2"}, "TSSK1": {"biological_target": "TSSK1 (Homo sapiens, UniProt Q9BXA7)", "excerpt": "as §1, §2"}, "PKD1": {"biological_target": "PKD1 (Homo sapiens, UniProt Q15139)", "excerpt": "as §1, §2"}, "MARK2": {"biological_target": "MARK2 (Homo sapiens, UniProt Q7KZI7)", "excerpt": "as §1, §2"}, "IKKe": {"biological_target": "IKKe (Homo sapiens, UniProt Q14164)", "excerpt": "as §1, §2"}, "PLK1": {"biological_target": "PLK1 (Homo sapiens, UniProt P53350)", "excerpt": "as §1, §2"}, "BTK": {"biological_target": "BTK (Homo sapiens, UniProt Q06187)", "excerpt": "as §1, §2"}, "HIPK3": {"biological_target": "HIPK3 (Homo sapiens, UniProt Q9H422)", "excerpt": "as §1, §2"}, "Aurora A": {"biological_target": "Aurora A (Homo sapiens, UniProt O14965)", "sequence (O14965 whole entry)": "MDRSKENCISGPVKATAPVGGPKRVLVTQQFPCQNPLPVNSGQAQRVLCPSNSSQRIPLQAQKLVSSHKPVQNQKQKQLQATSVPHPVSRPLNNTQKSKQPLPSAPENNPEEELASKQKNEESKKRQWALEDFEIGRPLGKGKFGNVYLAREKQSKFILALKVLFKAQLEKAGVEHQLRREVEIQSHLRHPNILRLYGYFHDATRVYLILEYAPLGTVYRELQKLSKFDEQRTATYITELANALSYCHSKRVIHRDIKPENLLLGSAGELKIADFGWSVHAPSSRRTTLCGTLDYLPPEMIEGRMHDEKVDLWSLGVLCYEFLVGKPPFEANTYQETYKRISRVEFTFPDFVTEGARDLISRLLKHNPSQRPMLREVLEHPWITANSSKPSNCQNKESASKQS", "excerpt": "as §1, §2"}, "YES1": {"biological_target": "YES1 (Homo sapiens, UniProt P07947)", "excerpt": "as §1, §2"}, "PKBb": {"biological_target": "PKBb (Homo sapiens, UniProt P31751)", "excerpt": "as §1, §2"}, "JNK2": {"biological_target": "JNK2 (Homo sapiens, UniProt P45984)", "excerpt": "as §1, §2"}, "CHK2": {"biological_target": "CHK2 (Homo sapiens, UniProt O96017)", "excerpt": "as §1, §2"}, "ERK1": {"biological_target": "ERK1 (Homo sapiens, UniProt P27361)", "excerpt": "as §1, §2"}, "CHK1": {"biological_target": "CHK1 (Homo sapiens, UniProt O14757)", "excerpt": "as §1, §2"}, "PKCz": {"biological_target": "PKCz (Homo sapiens, UniProt Q05513)", "sequence (Q05513 whole entry)": "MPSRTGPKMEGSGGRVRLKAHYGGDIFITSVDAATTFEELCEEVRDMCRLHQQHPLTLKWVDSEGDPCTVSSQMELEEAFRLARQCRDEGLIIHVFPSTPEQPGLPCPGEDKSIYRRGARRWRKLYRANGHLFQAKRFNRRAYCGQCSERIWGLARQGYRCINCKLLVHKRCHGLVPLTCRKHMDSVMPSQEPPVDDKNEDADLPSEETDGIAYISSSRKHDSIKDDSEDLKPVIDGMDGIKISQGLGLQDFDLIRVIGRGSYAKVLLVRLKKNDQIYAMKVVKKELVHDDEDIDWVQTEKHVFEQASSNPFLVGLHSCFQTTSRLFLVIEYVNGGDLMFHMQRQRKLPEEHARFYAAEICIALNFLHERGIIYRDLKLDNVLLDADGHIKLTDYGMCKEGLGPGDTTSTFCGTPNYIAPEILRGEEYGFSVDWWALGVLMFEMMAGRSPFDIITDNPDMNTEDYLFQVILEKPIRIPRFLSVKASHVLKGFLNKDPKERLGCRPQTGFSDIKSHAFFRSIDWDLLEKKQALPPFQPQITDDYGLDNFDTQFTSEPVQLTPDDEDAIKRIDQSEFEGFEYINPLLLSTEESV", "excerpt": "as §1, §2"}, "MAPKAP-K2": {"biological_target": "MAPKAP-K2 (Homo sapiens, UniProt P49137)", "sequence (P49137 whole entry)": "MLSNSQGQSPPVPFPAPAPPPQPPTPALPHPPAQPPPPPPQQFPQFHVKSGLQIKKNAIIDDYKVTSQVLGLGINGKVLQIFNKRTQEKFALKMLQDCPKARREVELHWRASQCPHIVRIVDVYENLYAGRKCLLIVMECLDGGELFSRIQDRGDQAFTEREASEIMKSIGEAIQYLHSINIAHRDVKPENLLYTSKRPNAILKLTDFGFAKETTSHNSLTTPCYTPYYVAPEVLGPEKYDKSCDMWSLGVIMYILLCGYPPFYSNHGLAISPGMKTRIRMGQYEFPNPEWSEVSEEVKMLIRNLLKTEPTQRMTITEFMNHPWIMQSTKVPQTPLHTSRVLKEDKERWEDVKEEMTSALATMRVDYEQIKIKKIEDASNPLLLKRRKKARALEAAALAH", "excerpt": "as §1, §2"}, "PKBa": {"biological_target": "PKBa (Homo sapiens, UniProt P31749)", "excerpt": "as §1, §2"}, "MKK2": {"biological_target": "MKK2 (Homo sapiens, UniProt P36507)", "excerpt": "as §1, §2"}}}
{"smiles": "CCN(CC)Cc1ccc(OC)c(-c2cc3c(-c4ccc(C(=O)O)c(C(C)C)c4)ccnc3[nH]2)c1", "note": "[analogue 1, 4-(2-(5-((Diethylamino)methyl)-2-methoxyphenyl)-1H-pyrrolo[2,3-b]pyridin-4-yl)-2-isopropylbenzoic Acid]", "values": [{"measurement": "activity at 1 µM", "setting": "CK1δ", "value": 91, "unit": "%"}, {"measurement": "activity at 1 µM", "setting": "MSK1", "value": 99, "unit": "%"}, {"measurement": "activity at 1 µM", "setting": "CK2", "value": 90, "unit": "%"}, {"measurement": "activity at 1 µM", "setting": "CDK2-Cyclin A", "value": 12, "unit": "%"}, {"measurement": "activity at 1 µM", "setting": "MAP4K5", "value": 14, "unit": "%"}, {"measurement": "activity at 1 µM", "setting": "HIPK1", "value": 83, "unit": "%"}, {"measurement": "activity at 1 µM", "setting": "EPH-A4", "value": 83, "unit": "%"}, {"measurement": "activity at 1 µM", "setting": "MAP4K3", "value": 1, "unit": "%"}, {"measurement": "activity at 1 µM", "setting": "TLK1", "value": 106, "unit": "%"}, {"measurement": "activity at 1 µM", "setting": "ERK2", "value": 115, "unit": "%"}, {"measurement": "activity at 1 µM", "setting": "Aurora B", "value": 59, "unit": "%"}, {"measurement": "activity at 1 µM", "setting": "TGFBR1", "value": 6, "unit": "%"}, {"measurement": "activity at 1 µM", "setting": "MELK", "value": 85, "unit": "%"}, {"measurement": "activity at 1 µM", "setting": "JAK3", "value": 22, "unit": "%"}, {"measurement": "activity at 1 µM", "setting": "PIM1", "value": 107, "unit": "%"}, {"measurement": "activity at 1 µM", "setting": "EF2K", "value": 113, "unit": "%"}, {"measurement": "activity at 1 µM", "setting": "SYK", "value": 89, "unit": "%"}, {"measurement": "activity at 1 µM", "setting": "MARK3", "value": 34, "unit": "%"}, {"measurement": "activity at 1 µM", "setting": "MKK1", "value": 79, "unit": "%"}, {"measurement": "activity at 1 µM", "setting": "PKA", "value": 103, "unit": "%"}, {"measurement": "activity at 1 µM", "setting": "IKKb", "value": 144, "unit": "%"}, {"measurement": "activity at 1 µM", "setting": "EPH-A2", "value": 64, "unit": "%"}, {"measurement": "activity at 1 µM", "setting": "PIM2", "value": 93, "unit": "%"}, {"measurement": "activity at 1 µM", "setting": "SIK3", "value": 71, "unit": "%"}, {"measurement": "activity at 1 µM", "setting": "ASK1", "value": 91, "unit": "%"}, {"measurement": "activity at 1 µM", "setting": "PAK2", "value": 84, "unit": "%"}, {"measurement": "activity at 1 µM", "setting": "TSSK1", "value": 55, "unit": "%"}, {"measurement": "activity at 1 µM", "setting": "PKD1", "value": 85, "unit": "%"}, {"measurement": "activity at 1 µM", "setting": "MARK2", "value": 34, "unit": "%"}, {"measurement": "activity at 1 µM", "setting": "IKKe", "value": 52, "unit": "%"}, {"measurement": "activity at 1 µM", "setting": "PLK1", "value": 104, "unit": "%"}, {"measurement": "activity at 1 µM", "setting": "BTK", "value": 119, "unit": "%"}, {"measurement": "activity at 1 µM", "setting": "HIPK3", "value": 93, "unit": "%"}, {"measurement": "activity at 1 µM", "setting": "Aurora A", "value": 17, "unit": "%"}, {"measurement": "activity at 1 µM", "setting": "YES1", "value": 67, "unit": "%"}, {"measurement": "activity at 1 µM", "setting": "PKBb", "value": 96, "unit": "%"}, {"measurement": "activity at 1 µM", "setting": "JNK2", "value": 62, "unit": "%"}, {"measurement": "activity at 1 µM", "setting": "CHK2", "value": 77, "unit": "%"}, {"measurement": "activity at 1 µM", "setting": "ERK1", "value": 100, "unit": "%"}, {"measurement": "activity at 1 µM", "setting": "CHK1", "value": 78, "unit": "%"}, {"measurement": "activity at 1 µM", "setting": "PKCz", "value": 121, "unit": "%"}, {"measurement": "activity at 1 µM", "setting": "MAPKAP-K2", "value": 102, "unit": "%"}, {"measurement": "activity at 1 µM", "setting": "PKBa", "value": 115, "unit": "%"}, {"measurement": "activity at 1 µM", "setting": "MKK2", "value": 17, "unit": "%"}]}
